Assay results taken from patent US20240189387A1, “DOSING REGIMENS FOR HEMATOPOIETIC STEM CELL MOBILIZATION FOR STEM CELL TRANSPLANTS IN MULTIPLE MYELOMA PATIENTS” (Ensoma, Inc., priority 2021, published 2024).

Columns and labels:
[1] = system: neutrophil and platelet engraftment; assay type: in vivo
[2] = assay type: in vivo
MMP-9 = assay: Phase 1 trial: plasma MMP-9 and TIMP-1 (sandwich immunoassay); assay type: in vivo, human; conditions: MGTA-145 monotherapy, all six doses
Procedure: (§1) Additionally, blood samples were analyzed by multicolor flow cytometry to quantify changes in expression of neutrophil activation markers such as L-selectin, CD11b, CD18, and CD66. Additionally, matrix metalloproteinase 9 (MMP-9), a neutrophil protease believed to mediate mobilization in response to MGTA-145, as well as its cognate inhibitor, TIMP-1, were quantified in plasma samples collected at the same time points by sandwich immunoassay.

[3] = system: hematopoietic stem and progenitor cells; conditions: U.S. Pat. No. 6,080,398; cited from earlier work
white blood cells (WBCs) = assay: Phase 1 trial: mobilization of white blood cells (automated hematology analyzer); conditions: MGTA-145 monotherapy
Procedure: (§2) The dose of MGTA-145 was one of 0.0075 mg/kg, 0.015 mg/kg, 0.03 mg/kg, 0.075 mg/kg, 0.15 mg/kg, or 0.3 mg/kg. […] The dose of MGTA-145 was one of 0.015 mg/kg, 0.03 mg/kg, 0.075 mg/kg, or 0.15 mg/kg. […] The dose of MGTA-145 was one of 0.03 mg/kg or 0.075 mg/kg.
(§3) Mobilization of white blood cells (WBCs), neutrophils, lymphocytes, basophils, and eosinophils was quantified by automated hematology analyzer.

CD34+ cells [4] = assay: Phase 1 trial Part D: apheresis collection yield; conditions: 2 h stagger after plerixafor
Procedure: as §2
The table documents the body weight of each subject, the total CD34+ cells that were obtained through the apheresis procedure, the normalized CD34+ cells/kg of body weight, and the percentage of CD34+ cells that were CD90+CD45RA−.
The table documents the total CD34+ cells that were obtained through the apheresis procedure, the normalized CD34+ cells/kg of body weight, and the percentage of CD34+ cells that were CD90+CD45RA−.

CD34+CD90+CD45RA− cells = assay: Phase 1 trial: mobilization of CD34+CD90+CD45RA− cells into peripheral blood (flow cytometry)
[5] = system: LT-HSC cells (Lin−c-Kit+Sca1+CD150+CD48−); assay: Mobilization in mice and primary/secondary transplantation at limit dilution; assay type: in vivo; conditions: compared to the other cohorts
Source text: Mice (CD45.1) were mobilized according to the scheme shown in FIG. 24 and mobilized cells transplanted into CD45.2 mice at limit dilution.

CXCR2 = target: T1, CXCR2 (Homo sapiens, UniProt P25025); assay: Phase 1 trial: CXCR2 expression on peripheral blood neutrophils; assay type: in vivo
T1 construct: endogenous in cells; host or cells: peripheral blood neutrophils of dosed subjects (in vivo)
T1 sequence (P25025 1-360): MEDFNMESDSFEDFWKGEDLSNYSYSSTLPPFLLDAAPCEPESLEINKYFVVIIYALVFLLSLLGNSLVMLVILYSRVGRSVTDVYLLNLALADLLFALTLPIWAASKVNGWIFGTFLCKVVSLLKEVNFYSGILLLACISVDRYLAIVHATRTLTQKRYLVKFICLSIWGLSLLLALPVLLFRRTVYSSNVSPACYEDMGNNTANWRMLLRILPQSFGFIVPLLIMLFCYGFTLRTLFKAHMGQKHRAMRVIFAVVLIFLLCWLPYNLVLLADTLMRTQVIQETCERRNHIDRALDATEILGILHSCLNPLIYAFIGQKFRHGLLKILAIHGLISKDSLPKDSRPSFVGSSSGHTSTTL

CD34+ cells [6] = assay: Phase 1 trial: mobilization of CD34+ cells into peripheral blood (multicolor flow cytometry); conditions: for Percent ≥20/μL / Peak CD34+ (#/μL) Median: Part A
[7] = Phase 1 trial: treatment emergent adverse events; conditions: Part A, n = 24
Source text: FIG. 1A depicts the treatments provided to patient cohorts enrolled in Part A and Part B of a Phase 1 clinical trial as well as measurable endpoints.
Patients were monitored for emergent adverse events.

[8] = system: neutrophil activation markers (L-selectin, CD11b, CD18, CD66); assay: Phase 1 trial: neutrophil activation markers (flow cytometry); assay type: in vivo, human; conditions: MGTA-145 monotherapy
Procedure: as §1

neutrophils = assay: Phase 1 trial: mobilization of neutrophils (automated hematology analyzer); conditions: MGTA-145 monotherapy
Procedure: as §2, §3

[9] = higher doses (0.075, 0.15, 0.3 mg/kg), 2 hours post administration
[10] = lower doses (0.0075, 0.015, 0.03 mg/kg)
[11] = MGTA-145 monotherapy 0.03 mg/kg
[12] = MGTA-145 monotherapy, the other doses

Substance: MGTA-145: Gro-β T (SEQ ID NO: 2), truncated Gro-β with deletion of the first four N-terminal amino acids; CXCR2 agonist
- engraftment at day 100 follow-up ([1]; 14 patients): durable engraftment
- engraftment after transplant ([1]; 18 transplanted patients): All patients have engrafted
- median time to platelet engraftment (platelets ≥20,000×10^6/L, no transfusion in 7 days) ([1]; 18 transplanted patients): 17.5 days
- patients needing RBC transfusion ([1]; 18 transplanted patients): 17%
- median time to neutrophil engraftment ([1]; 18 transplanted patients, range 11-15): 12 days
- median severity of pain on a scale of 1-10 [2]: 8 (3-10)
- patients experiencing hyperhidrosis [2]: 4%
- patients experiencing nausea [2]: 8%
- patients experiencing thrombocytopenia [2]: 8%
- patients experiencing vomiting (grade 2) [2]: 4%
- patients with TEAEs at least possibly related to MGTA-145 [2]: 60%
- patients with acute pain [2]: 9 patients
- patients experiencing pain ([2]; 11 patients): 50%
- patients with acute onset transient bone pain with MGTA-145 ([2]; 25 patients): 38%
- patients with pain (all grade 1) ([2]; 25 patients): 44%
- patients with at least 1 treatment emergent AE with MGTA-145 ([2]; 25 patients, grade 1 n=14, grade 2 n=1): 60%
- duration of acute onset transient bone pain ([2]; 25 patients, range 3-28): 7 min
- patients with at least 1 adverse event ([2]; initial cohort): 90%
- patients with grade 2 AEs (anemia, hypokalemia) ([2]; initial cohort): 20%
- patients with grade 3 AEs (worsening of baseline grade 3 anemia; hypocalcemia) ([2]; initial cohort): 20%
- tolerability ([2]; multiple myeloma patients): well tolerated
- onset of acute and transient bone pain after start of MGTA-145 infusion (median) ([2]; range 3-10): about 5 minutes
- median duration of acute and transient bone pain ([2]; range 3-28): 7 min
- molar ratio of MMP-9:TIMP-1 (MMP-9): rapid increase 30 minutes post-administration
- plasma levels of MMP-9 (MMP-9): increased sharply within 30 minutes post-administration
- potency to induce hematopoietic stem and progenitor cell mobilization relative to Gro-β [3]: superior to that of Gro-β by multiple orders of magnitude
- initial plateau of WBC mobilization (white blood cells (WBCs); [9]): 6-10 ×10^3 cells/μL
- peak mobilization of WBCs (white blood cells (WBCs); [10]): 15-17 ×10^3 cells/μL
- CD34+/kg Mean (CD34+ cells [4]; MGTA-145 0.03 mg/kg): 4.1 x10^6
- CD34+/kg Median (CD34+ cells [4]; MGTA-145 0.03 mg/kg): 4.3 x10^6
- CD90+/kg Mean (CD34+CD90+CD45RA− cells) (CD34+ cells [4]; MGTA-145 0.03 mg/kg): 1.3 x10^6
- CD90+/kg Median (CD34+CD90+CD45RA− cells) (CD34+ cells [4]; MGTA-145 0.03 mg/kg): 1.5 x10^6
- Total CD34+ Yield Median (range) (CD34+ cells [4]; MGTA-145 0.03 mg/kg): 321 (239-500) x10^6
- CD90+ (% of CD34+) (CD34+ cells [4]; MGTA-145 0.03 mg/kg, 0.03 mg/kg): 31%
- CD90+/kg Mean (CD34+CD90+CD45RA− cells) (CD34+ cells [4]; MGTA-145 […]): 1.4 x10^6
- CD90+/kg Median (CD34+CD90+CD45RA− cells) (CD34+ cells [4]; MGTA-145 […]): 1.2 x10^6
- CD90+ (% of CD34+) (CD34+ cells [4]; MGTA-145 […], […]): 37%
- fold increase of CD34+CD90+CD45RA− cells (CD34+CD90+CD45RA− cells; [11]): ~8.3 fold
- peak concentration of CD34+CD90+CD45RA− cells (CD34+CD90+CD45RA− cells; [11]): ~3 cells/μL
- time of peak CD34+CD90+CD45RA− mobilization post administration (CD34+CD90+CD45RA− cells; MGTA-145 monotherapy, six doses): 30 min
- fold increase of CD34+CD90+CD45RA− cells (CD34+CD90+CD45RA− cells; [12]): 2-3.5 fold
- peak concentration of CD34+CD90+CD45RA− cells (CD34+CD90+CD45RA− cells; [12]): 1-1.6 cells/μL
- engraftment rates, secondary transplantation [5]: vastly improved engraftment rates
- CXCR2 expression recovery prior to the second dose (CXCR2; MGTA-145 0.07 mg/kg, staggered dosing with plerixafor, two consecutive days): ~80 % of baseline
- CXCR2 on peripheral neutrophils (CXCR2; MGTA-145 monotherapy, followed by recovery over 24 hours): rapid downregulation
- fold increase of CD34+ cells (CD34+ cells [6]; [11]): 7 fold
- peak concentration of CD34+ cells (CD34+ cells [6]; [11]): ~10 cells/μL
- time of peak CD34+ mobilization post administration (CD34+ cells [6]; MGTA-145 monotherapy, across six doses 0.0075-0.3 mg/kg): about 30 minutes
- fold increase of CD34+ cells (CD34+ cells [6]; [12]): 2-3 fold
- peak concentration of CD34+ cells (CD34+ cells [6]; MGTA-145 monotherapy, the other doses (0.0075, 0.015, 0.075, 0.15, 0.3 mg/kg)): ~5 cells/μL
- Percent ≥20/μL (CD34+ cells [6]; MGTA-145 0.03 mg/kg): 0%
- Peak CD34+ (#/μL) Median (CD34+ cells [6]; MGTA-145 0.3 mg/kg): 3 #/μL
- Percent ≥20/μL (CD34+ cells [6]; MGTA-145 0.3 mg/kg): 0%
- Peak CD34+ (#/μL) Median (CD34+ cells [6]; MGTA-145 on Day 1, 0.03 mg/kg): 12 #/μL
- Subjects with any drug related TEAE ([7]; MGTA-145 0.0075-0.3 mg/kg): 19 (79.2) n (%)
- Back pain/Musculoskeletal pain [7]: 19 (79.2) n (%)
- fold change relative to baseline of CD66 ([8]; all doses except the highest (0.3 mg/kg)): < 2 fold
- fold change relative to baseline of CD11b and CD18 ([8]; all six doses): < 2 fold
- fold change relative to baseline of L-selectin ([8]; all six doses): < 2 fold
- initial plateau of neutrophil mobilization (neutrophils; [9]): 5-8 ×10^3 cells/μL
- peak mobilization of neutrophils (neutrophils; [10]): 13-15 ×10^3 cells/μL
